Conditions in all cases: octanol/water
Series [1] can be described thus: Partition coefficient (logP).
Series [2] in a line: Partition coefficient (logP) (dodecane).
Series [3] is described as follows: Partition coefficient across water-dodecane interface by statistical simulation.

Some results are limits rather than exact numbers.

With `CC(=O)c1ccc(S(C)(=O)=O)cc1`, the logP (commonly a log measure of how a compound divides between an organic and an aqueous phase) in series [1] was 0.33; in series [2], -1.56.
In series [2], `Oc1cccc(Cl)c1` gave a logP of -0.34.
Take `CN1C(=O)Cc2ccccc21`: the logP in series [1] was 0.63; in series [2], -0.9.
In the same order, the values of `Brc1cnc2ccccc2c1` are 3.11 and 2.59.
In the same order, the values of `OC[C@H]1O[C@H](O)[C@H](O)[C@@H](O)[C@@H]1O` are -3.02 and less than -3.
In the same order, the values of `CC(=O)Nc1ccccc1` [ACETANILIDE] are 1.13 and -1.76.
As for `CC(=O)c1ccccc1` [ACETOPHENONE], the logP in series [1] stood at 1.56; in series [2], 0.94.
Taken in the same sequence, the figures for `c1ccc2nc3ccccc3cc2c1` [ACRIDINE] were 2.98 and 2.32.
In series [2], `COc1ccccc1` [ANISOLE] showed a logP of 2.06.
For `NC(=O)c1ccccc1N` [ANTHRANILAMIDE], the logP was 0.32 in series [1] and -2.72 in series [2].
`Cc1cc(=O)n(-c2ccccc2)n1C` [ANTIPYRINE]: the logP in series [2] is on record as -2.52; in series [3] it was -2.5.
Regarding `NC(=O)c1ccccc1` [BENZAMIDE], the logP in series [1] was 0.67; in series [2], -2.67.
Take `NS(=O)(=O)c1ccccc1` [BENZENESULFONAMIDE]: the figures for the logP in series [1] and in series [2] were 0.33 and -3.14, respectively.
For `OCc1ccccc1` [BENZYL ALCOHOL], the logP in series [2] is given as -0.77.
For the compound `O=[N+]([O-])c1ccccc1` [NITROBENZENE], the values for the logP in series [1] and in series [2] were 1.84 and 1.43, respectively.
Taken in the same sequence, the figures for `O=C1Cc2ccccc2N1` [OXINDOLE] were 1.07 and -1.95.
In the same order, the values of `Oc1ccccc1` [PHENOL] are 1.5 and -1.04.
Taken in the same sequence, the figures for `c1ccc2nccnc2c1` [QUINOXALINE] were 1.35 and 0.51.

(Values after ChEMBL document CHEMBL1135392, “Rational determination of transfer free energies of small drugs across the water-oil interface” (J Med Chem, 2002).)
